Data from PubChem BioAssay (NCI).
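Each compound was tested at five concentrations against cells in 96-well plates for 48 hours. At the GI50, growth is halved. At the TGI there is no net growth.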

Key:
Assay in all cases: inhibition of tumour cell growth, NCI panel, 48 h
CCRF-CEM leukemia = tested on: CCRF-CEM leukemia
NCI/ADR-RES ovarian = tested on: NCI/ADR-RES ovarian
LOX IMVI melanoma = tested on: LOX IMVI melanoma
A549 NSCLC = tested on: A549 NSCLC
PC-3 prostate = tested on: PC-3 prostate
MCF7 breast = tested on: MCF7 breast
HT29 colon = tested on: HT29 colon
COLO 205 colon = tested on: COLO 205 colon
ACHN renal = tested on: ACHN renal
RPMI-8226 leukemia = tested on: RPMI-8226 leukemia
HCT-15 colon = tested on: HCT-15 colon
HOP-62 NSCLC = tested on: HOP-62 NSCLC
HCT-116 colon = tested on: HCT-116 colon
K-562 leukemia = tested on: K-562 leukemia
NCI-H460 lung = tested on: NCI-H460 lung
HCC-2998 colon = tested on: HCC-2998 colon
KM12 colon = tested on: KM12 colon
SW-620 colon = tested on: SW-620 colon
NCI-H226 lung = tested on: NCI-H226 lung

For `Cc1cc(Nc2ccc(F)cc2)nc(N2CCN(c3ccnc4cc(Cl)ccc34)CC2)n1`, which GI50 (CCRF-CEM leukemia) is on record?
The GI50 was 2.99 µM.

And the TGI (CCRF-CEM leukemia)?
Its TGI is over 100 µM.

And the GI50 (NCI/ADR-RES ovarian)?
The GI50 was 2.88 µM.

And the TGI (NCI/ADR-RES ovarian)?
Its TGI is over 100 µM.

What about the GI50 (LOX IMVI melanoma) of the same molecule?
The GI50 was 2.94 µM.

What about the TGI (LOX IMVI melanoma) of the same molecule?
Its TGI is over 100 µM.

And the GI50 (A549 NSCLC)?
The GI50 was 3.75 µM.

And the TGI (A549 NSCLC)?
Its TGI is over 100 µM.

What about the GI50 (PC-3 prostate) of the same molecule?
The GI50 was 1.79 µM.

And the TGI (PC-3 prostate)?
Its TGI is over 100 µM.

And the GI50 (MCF7 breast)?
The GI50 was 2.69 µM.

And the TGI (MCF7 breast)?
Its TGI is over 100 µM.

What about the GI50 (HT29 colon) of the same molecule?
The GI50 was 2.96 µM.

What about the TGI (HT29 colon) of the same molecule?
The TGI was over 100 µM.

What about the GI50 (COLO 205 colon) of the same molecule?
Its GI50 is 1.8 µM.

And the TGI (COLO 205 colon)?
Its TGI is 4.39 µM.

And the GI50 (ACHN renal)?
The GI50 was 2.84 µM.

What about the TGI (ACHN renal) of the same molecule?
Its TGI is over 100 µM.

What about the GI50 (RPMI-8226 leukemia) of the same molecule?
Its GI50 is 2.25 µM.

What about the TGI (RPMI-8226 leukemia) of the same molecule?
The TGI was over 100 µM.

What about the GI50 (HCT-15 colon) of the same molecule?
Its GI50 is 2.27 µM.

What about the TGI (HCT-15 colon) of the same molecule?
Its TGI is over 100 µM.

And the GI50 (HOP-62 NSCLC)?
The GI50 was 4.06 µM.

What about the TGI (HOP-62 NSCLC) of the same molecule?
The TGI was over 100 µM.

And the GI50 (HCT-116 colon)?
The GI50 was 2.15 µM.

And the TGI (HCT-116 colon)?
Its TGI is over 100 µM.

And the GI50 (K-562 leukemia)?
The GI50 was 2.49 µM.

What about the TGI (K-562 leukemia) of the same molecule?
Its TGI is over 100 µM.

What about the GI50 (NCI-H460 lung) of the same molecule?
Its GI50 is 2.95 µM.

What about the TGI (NCI-H460 lung) of the same molecule?
Its TGI is over 100 µM.

What about the GI50 (HCC-2998 colon) of the same molecule?
Its GI50 is 4.05 µM.

What about the TGI (HCC-2998 colon) of the same molecule?
Its TGI is over 100 µM.

What about the GI50 (KM12 colon) of the same molecule?
The GI50 was 2.78 µM.

What about the TGI (KM12 colon) of the same molecule?
Its TGI is 75 µM.

What about the GI50 (SW-620 colon) of the same molecule?
Its GI50 is 3.44 µM.

And the TGI (SW-620 colon)?
Its TGI is over 100 µM.

And the GI50 (NCI-H226 lung)?
The GI50 was 4.75 µM.

What about the TGI (NCI-H226 lung) of the same molecule?
Its TGI is over 100 µM.
